The NIST ThermoML archive (doi:10.1021/je400056z)
Numbers after ± are expanded uncertainties.

Test: xn = mol fraction of the nth substance listed
Conditions: Liquid, Vibrating tube method

CCCCCCCCCCCCC [tridecane] + O=C=O
Conditions | mass density [kg/m3]
323.16 K, 14000 kPa, x2 = 0.2526 | 751.2 ± 0.3
323.16 K, 14000 kPa, x2 = 0.7549 | 788.1 ± 0.3
323.16 K, 15000 kPa, x2 = 0.0955 | 748.5 ± 0.4
323.16 K, 15000 kPa, x2 = 0.2526 | 752.1 ± 0.4
323.16 K, 15000 kPa, x2 = 0.7549 | 791.5 ± 0.3
323.16 K, 16000 kPa, x2 = 0.0955 | 749.2 ± 0.4
323.16 K, 16000 kPa, x2 = 0.2526 | 752.9 ± 0.4
323.16 K, 16000 kPa, x2 = 0.7549 | 794.6 ± 0.3
323.16 K, 17000 kPa, x2 = 0.0955 | 750 ± 0.4
323.16 K, 17000 kPa, x2 = 0.2526 | 753.7 ± 0.4
323.16 K, 17000 kPa, x2 = 0.7549 | 798.1 ± 0.3
323.16 K, 18000 kPa, x2 = 0.0955 | 750.7 ± 0.4
323.16 K, 18000 kPa, x2 = 0.2526 | 754.4 ± 0.4
323.16 K, 18000 kPa, x2 = 0.7549 | 801.2 ± 0.3
323.16 K, 19000 kPa, x2 = 0.0955 | 751.4 ± 0.4
323.16 K, 19000 kPa, x2 = 0.2526 | 755.2 ± 0.4
323.16 K, 19000 kPa, x2 = 0.7549 | 804.1 ± 0.3
323.16 K, 20000 kPa, x2 = 0.0955 | 752.1 ± 0.4
323.16 K, 20000 kPa, x2 = 0.2526 | 755.9 ± 0.4
323.16 K, 20000 kPa, x2 = 0.7549 | 807 ± 0.3
323.16 K, 21000 kPa, x2 = 0.0955 | 752.8 ± 0.4
323.16 K, 21000 kPa, x2 = 0.2526 | 756.6 ± 0.4
323.16 K, 21000 kPa, x2 = 0.7549 | 809.5 ± 0.3
323.16 K, 22000 kPa, x2 = 0.0955 | 753.4 ± 0.4
323.16 K, 22000 kPa, x2 = 0.2526 | 757.3 ± 0.4
323.16 K, 22000 kPa, x2 = 0.7549 | 812.4 ± 0.3
323.16 K, 23000 kPa, x2 = 0.0955 | 754.1 ± 0.4
323.16 K, 23000 kPa, x2 = 0.2526 | 758 ± 0.4
323.16 K, 23000 kPa, x2 = 0.7549 | 815 ± 0.3
323.16 K, 24000 kPa, x2 = 0.0955 | 754.7 ± 0.4
323.16 K, 24000 kPa, x2 = 0.2526 | 758.7 ± 0.4
323.16 K, 24000 kPa, x2 = 0.7549 | 817.5 ± 0.3
323.16 K, 25000 kPa, x2 = 0.0955 | 755.3 ± 0.4
323.16 K, 25000 kPa, x2 = 0.2526 | 759.3 ± 0.4
323.19 K, 8000 kPa, x2 = 0.5259 | 758.8 ± 0.3
323.19 K, 9000 kPa, x2 = 0.5259 | 760.1 ± 0.3
323.19 K, 10000 kPa, x2 = 0.5259 | 761.4 ± 0.3
323.19 K, 11000 kPa, x2 = 0.5259 | 762.6 ± 0.3
323.19 K, 12000 kPa, x2 = 0.5259 | 763.8 ± 0.3
323.19 K, 13000 kPa, x2 = 0.5259 | 764.9 ± 0.3
323.19 K, 14000 kPa, x2 = 0.5259 | 766 ± 0.3
323.19 K, 15000 kPa, x2 = 0.5259 | 767.2 ± 0.3
323.19 K, 16000 kPa, x2 = 0.5259 | 768.2 ± 0.3
323.19 K, 17000 kPa, x2 = 0.5259 | 769.3 ± 0.3
323.19 K, 18000 kPa, x2 = 0.5259 | 770.4 ± 0.3
323.19 K, 19000 kPa, x2 = 0.5259 | 771.4 ± 0.4
323.19 K, 20000 kPa, x2 = 0.5259 | 772.4 ± 0.4
323.19 K, 21000 kPa, x2 = 0.5259 | 773.3 ± 0.4
323.19 K, 22000 kPa, x2 = 0.5259 | 774.3 ± 0.4
323.19 K, 23000 kPa, x2 = 0.5259 | 775.3 ± 0.4
323.19 K, 24000 kPa, x2 = 0.5259 | 776.2 ± 0.4
323.19 K, 25000 kPa, x2 = 0.5259 | 777 ± 0.4
333.14 K, 13000 kPa, x2 = 0.8978 | 737.1 ± 0.4
333.14 K, 14000 kPa, x2 = 0.8978 | 745.4 ± 0.4
333.14 K, 15000 kPa, x2 = 0.8978 | 754 ± 0.4
333.14 K, 16000 kPa, x2 = 0.8978 | 761.2 ± 0.4
333.14 K, 17000 kPa, x2 = 0.8978 | 767.9 ± 0.4
333.14 K, 18000 kPa, x2 = 0.8978 | 774.1 ± 0.4
333.14 K, 19000 kPa, x2 = 0.8978 | 779.5 ± 0.4
333.14 K, 20000 kPa, x2 = 0.8978 | 784.8 ± 0.4
333.14 K, 21000 kPa, x2 = 0.8978 | 789.8 ± 0.4
333.14 K, 22000 kPa, x2 = 0.8978 | 794.7 ± 0.4
333.14 K, 23000 kPa, x2 = 0.8978 | 799.2 ± 0.4
333.14 K, 24000 kPa, x2 = 0.8978 | 803.5 ± 0.4
333.14 K, 25000 kPa, x2 = 0.8978 | 807.8 ± 0.4
333.16 K, 8000 kPa, x2 = 0.5259 | 749 ± 0.3
333.16 K, 9000 kPa, x2 = 0.5259 | 750.4 ± 0.3
333.16 K, 10000 kPa, x2 = 0.5259 | 751.7 ± 0.3
333.16 K, 11000 kPa, x2 = 0.5259 | 753 ± 0.3
333.16 K, 12000 kPa, x2 = 0.5259 | 754.2 ± 0.3
333.16 K, 13000 kPa, x2 = 0.5259 | 755.5 ± 0.3
333.16 K, 14000 kPa, x2 = 0.5259 | 756.7 ± 0.3
333.16 K, 15000 kPa, x2 = 0.5259 | 757.9 ± 0.3
333.16 K, 16000 kPa, x2 = 0.5259 | 759 ± 0.3
333.16 K, 17000 kPa, x2 = 0.5259 | 760.2 ± 0.3
333.16 K, 18000 kPa, x2 = 0.5259 | 761.3 ± 0.4
333.16 K, 19000 kPa, x2 = 0.5259 | 762.4 ± 0.4
333.16 K, 20000 kPa, x2 = 0.5259 | 763.4 ± 0.4
333.16 K, 21000 kPa, x2 = 0.5259 | 764.5 ± 0.4
333.16 K, 22000 kPa, x2 = 0.5259 | 765.5 ± 0.4
333.16 K, 23000 kPa, x2 = 0.5259 | 766.5 ± 0.4
333.16 K, 24000 kPa, x2 = 0.5259 | 767.5 ± 0.4
333.16 K, 25000 kPa, x2 = 0.5259 | 768.5 ± 0.4
333.28 K, 12000 kPa, x2 = 0.7549 | 762.3 ± 0.3
333.28 K, 13000 kPa, x2 = 0.7549 | 766.5 ± 0.3
333.28 K, 14000 kPa, x2 = 0.7549 | 769.6 ± 0.3
333.28 K, 15000 kPa, x2 = 0.7549 | 772.6 ± 0.3
333.28 K, 16000 kPa, x2 = 0.7549 | 775.6 ± 0.3
333.28 K, 17000 kPa, x2 = 0.7549 | 778.6 ± 0.3
333.28 K, 18000 kPa, x2 = 0.7549 | 781.5 ± 0.3
333.28 K, 19000 kPa, x2 = 0.7549 | 784.5 ± 0.3
333.28 K, 20000 kPa, x2 = 0.7549 | 787.4 ± 0.4
333.28 K, 21000 kPa, x2 = 0.7549 | 790.4 ± 0.4
333.28 K, 22000 kPa, x2 = 0.7549 | 793.1 ± 0.4
333.28 K, 23000 kPa, x2 = 0.7549 | 795.7 ± 0.4
333.28 K, 24000 kPa, x2 = 0.7549 | 798.4 ± 0.4
333.28 K, 25000 kPa, x2 = 0.7549 | 800.8 ± 0.4
333.3 K, 9000 kPa, x2 = 0.0955 | 736.6 ± 0.3
333.3 K, 9000 kPa, x2 = 0.2526 | 739.5 ± 0.3
333.3 K, 10000 kPa, x2 = 0.0955 | 737.4 ± 0.3
333.3 K, 10000 kPa, x2 = 0.2526 | 740.4 ± 0.3
333.3 K, 11000 kPa, x2 = 0.0955 | 738.3 ± 0.3
333.3 K, 11000 kPa, x2 = 0.2526 | 741.4 ± 0.3
333.3 K, 12000 kPa, x2 = 0.0955 | 739.1 ± 0.4
333.3 K, 12000 kPa, x2 = 0.2526 | 742.3 ± 0.3
333.3 K, 13000 kPa, x2 = 0.0955 | 739.9 ± 0.4
333.3 K, 13000 kPa, x2 = 0.2526 | 743.1 ± 0.3
333.3 K, 14000 kPa, x2 = 0.0955 | 740.8 ± 0.4
333.3 K, 14000 kPa, x2 = 0.2526 | 744 ± 0.4
333.3 K, 15000 kPa, x2 = 0.0955 | 741.6 ± 0.4
333.3 K, 15000 kPa, x2 = 0.2526 | 744.9 ± 0.4
333.3 K, 16000 kPa, x2 = 0.0955 | 742.3 ± 0.4
333.3 K, 16000 kPa, x2 = 0.2526 | 745.7 ± 0.4
333.3 K, 17000 kPa, x2 = 0.0955 | 743.1 ± 0.4
